Data published in patent US20110237495A1, “FUNCTIONAL METABOLOMICS COUPLED MICROFLUIDIC CHEMOTAXIS DEVICE AND IDENTIFICATION OF NOVEL CELL MEDIATORS” (The Brigham and Women's Hospital, Inc. Corporate Sponsored …, priority 2008, published 2011).
“Also recorded” adds a separate entry of the source. One block for each compound: values may come before it.

What was measured:
[1] = cited from earlier work
[2] = system: leukocyte infiltration in lung tissues; test: Hind-limb ischemia-reperfusion-induced second-organ (lung) injury, lung MPO by ELISA; type: in vivo, mice; conditions: for effect on leukocyte (PMN) infiltration / MPO in lung tissue, in words: 1 μg/mouse i.v.; for reduction of lung MPO concentration (FIG. 7D), mean±SEM: 1 μg i.v. 5 min before reperfusion, lungs collected after 2 h reperfusion
Method: To identify the effects of the resolvins and protectins on inflammation resolution, ischemia-reperfusion induced second-organ injury experiments were designed and are illustrated in FIGS. 7A-D. Mice were anesthetized by intraperitoneal injection of pentobarbital (80 mg kg^−1, Nembutal sodium solution NDC 0074-3778-04). Hind-limb ischemia was initiated using tourniquets consisting of a rubber band placed on each hind limb as in ref.^35. Mice were subjected to hind limb ischemia for 1 h, after which the tourniquets were removed to initiate reflow-reperfusion. Resolvins, related compounds and analogs were each administered at 1 μg/mouse (i.e., DHA, RvD1, RvD1 methyl ester, 17-(R/S)-methyl-RvD1 methyl ester, RvE1, or 19-p-fluorophenoxy-RvE1 methyl ester) in vehicle (5 μl ethanol in 120 μl sterile saline) or vehicle alone. They were administered intravenously to the tail vein ˜5 min before the start of the reperfusion period. At the end of this reperfusion period (2 h), the mice were euthanized with an overdose of anesthetic and the lungs were quickly harvested, frozen in liquid nitrogen, and stored at −80° C. The right lungs were homogenized from individual mice and centrifuged, and the tissue levels of myeloperoxidase (MPO) (a leukocyte marker enzyme) in the resulting supernatants, for each experimental protocol, were determined using a mouse MPO enzyme-linked immunosorbent assay (Hycult biotechnology, Cell Sciences, Uden, The Netherlands).
Briefly, as illustrated in the time-course shown in FIG. 7A, hind-limb ischemia was induced in mice by creating tourniquets using a rubber band on each hind limb. After 1 h, the tourniquets were removed and reperfusion ensued. Test compounds (1 μg of DHA, RvD1, RvE1) in vehicle were administered intravenously 5 min before the start of the reperfusion period. At the end of the reperfusion period (2 h), lungs were collected and MPO concentrations were determined by ELISA. FIGS. 7B and C are representative images from histological analysis. FIG. 9B is a photomicrograph showing a hematoxylin/eosin-stained lung from ischemia/reperfusion second organ injury (control). […] Mean±SEM (n=3-5, control; n=12).
Ischemia/reperfusion is a well-appreciated pathophysiologic mechanism of organ injury and local tissue damage that can be initiated by excessively activated PMN. This system in the mouse, models the second organ injury observed in humans following tourniquet release of vessels in surgery involving, for example, extremities^41, 42. Remote or second organ injury can also occur when blood vessels are occluded, or during certain surgical procedures that create local ischemia and remote organ injury that has many features of rapid, acute inflammation and tissue damage^35. On release of the tourniquet occlusion, reflow is initiated and activated PMN rapidly infiltrate secondary organs, causing damage^35. Here, the inventors evaluated RvD1 in a remote organ injury system, i.e., hind-limb ischemia/reperfusion, to assess whether RvD1's ability to inhibit PMN migration, in vitro, in microchambers (FIGS. 8A-C, 9-11) can be predictive of their effect to reduce PMN mediated tissue and organ damage in vivo. […] The extent of lung tissue injury is associated with PMN activation and organ infiltration^35.

[3] = Metabolic inactivation of RvE1 by mouse lung tissue; type: in vitro ADME
[4] = system: human PMN; test: Microfluidic chemotaxis device: PMN chemotaxis in IL-8 gradient; type: cell-based; conditions: 10 nM (DHA equimolar), PMN captured on P-selectin from a drop of whole blood, n=12
Source text: A new microvolume chemotaxis device was designed using polyethylene glycol (PEG) that allows testing the chemotactic function of neutrophils and their responses to these novel lipid mediators immediately after being separated from whole blood within the device. One exemplary embodiment of the device is illustrated in FIGS. 8A-C. In this embodiment, the microvolume chemotaxis device with microstructured valves was fabricated using “lab-on-chip” microfabrication technologies^36. Briefly, two silicon wafers were coated with a 50-μm-thick layer of SU8 photoresist (MicroChem, Newton, Mass.). After exposure to UV light through a mylar mask in a mask, aligner and development following manufacturer recommendations, 50 μm-tall features were produced on top of the silicon wafers. Subsequently, poly (dimethylsiloxane) (PDMS, Dow Corning, Midland, Mich.) was prepared by mixing two components in 10:1 ratio, as recommended by the manufacturer. […]
After assembly, different sections of the device were chemically modified for specific functionalities. […] The surface of the chemotaxis chamber, where neutrophils were captured and assessed for their chemotactic responses, were modified by physical adsorption of P-selectin (10 ng/mL for 30 minutes, R&D Systems, Minneapolis, Minn.) immediately before use. […]

[5] = human plasma; cited from earlier work
[6] = system: P. gingivalis-induced periodontitis; test: Rabbit periodontitis induced with Porphyromonas gingivalis, RvE1 topical monotherapy; type: in vivo
Source text: The inventors established a small animal model for the evaluation of disease progression and regeneration after treatment using the rabbit as a model induced with periodontitis using Porphyromonas gingivalis. Briefly, ligatures were tied around the second mandibular premolar of rabbits for 6wk to create an environment where the periodontopatogen P. gingivalis could be retained. […] The right panel is the same preparation but with the jaws defleshed to show the bone underneath. […] FIG. 13 sows that the bone loss extends from the crest of the bone to the depth of the infrabony pocket.
The figures illustrate the new deposition of the cementum (NC) the new periodontal ligament (PL), connective tissue (CT) and bone (B).

[7] = system: peripheral blood monocytes; test: RANKL-induced differentiation of peripheral blood monocytes into osteoclasts; type: cell-based; conditions: RANKL treatment
Source text: This effect is even more pronounced than for PRP (platelet rich plasma) a recognized inhibitor of osteoclast differentiation. Preparations of 5, 10, 20% PRP are compared with RvE1 were quantified in experiments in which peripheral blood monocytes were induced to differentiate into osteoclasts with RANKL treatment.
In order to investigate the etiology of resolvins in bone regeneration, the inventors investigated the effect of RvE1 on osteoclast differentiation. In these experiments, peripheral blood monocytes were induced to differentiate into osteoclasts with RANKL treatment.

[8] = healthy human subjects; cited from earlier work

Structure (SMILES): CCC(=O)/C=C/C=C\C[C@@H](O)/C=C/C=C/C=C\[C@@H](O)CCCC(=O)O [18-oxo-RvE1]
activity of the lung metabolite [1]: devoid of activity

metabolic inactivation (conversion to 18-oxo) in mouse lung tissue [3]: prevents this metabolic inactivation
Structure (SMILES): COC(=O)CCC[C@H](O)\C=C/C=C/C=C/[C@H](O)C/C=C\C=C\[C@@H](O)COc1ccc(F)cc1 [19-p-fluorophenoxy-RvE1-Me, 19-p-fluorophenoxy-RvE1 methyl ester]
percent reduction of MPO found in lungs (FIG. 11), mean±SEM ([2]; 1 μg i.v. in vehicle, ischemia-reperfusion): 19.7 ±7.7%
effect on leukocyte (PMN) infiltration / MPO in lung tissue, in words [2]: significantly reduced leukocyte infiltration

Structure (SMILES): CC/C=C\C/C=C\C/C=C\C/C=C\C/C=C\C/C=C\CCC(=O)O [DHA, [4Z,7Z,10Z,13Z,16Z,19Z]-docosa-4,7,10,13,16,19-hexaenoic acid, reference compound]
reduction of lung MPO concentration (FIG. 7D), mean±SEM [2]: 0±7.7
effect on leukocyte (PMN) infiltration / MPO in lung tissue, in words [2]: neither DHA nor native RvE1 gave significant reduction
effect on PMN migration (chemotaxis) in IL-8 gradient [4]: did not stop PMN migration; also recorded: failed to stop neutrophil chemotaxis
half-life [5]: 20 h

Structure (SMILES): CC/C=C\C/C=C\C/C=C\C/C=C\C/C=C\CCCC(=O)O [EPA, [5Z,8Z,11Z,14Z,17Z-icosa-5,8,11,14,17-pentaenoic acid]
half-life [5]: 67 h

Structure (SMILES): CC[C@@H](O)/C=C/C=C\C[C@@H](O)/C=C/C=C/C=C\[C@@H](O)CCCC(=O)O [RvE1, 5S,12R,18R-trihydroxy-6Z,8E,10E,14Z,16E-eicosapentaenoic acid]
reduction of lung MPO concentration (FIG. 7D), mean±SEM [2]: 0±9.3
effect on leukocyte (PMN) infiltration / MPO in lung tissue, in words [2]: inactive
bone regeneration compared with healthy controls (FIG. 13) ([6]; animals with induced periodontitis treated with RvE1): approximately 80%
histology of regenerated periodontium (undecalcified sections) ([6]; area of prior periodontal disease): establishment of new cementum, new fiber attachment and new bone and connective tissue
RvE1-induced bone regeneration, in words ([6]; p<0.001): to pre-disease levels
osteoclast differentiation ([7]; PRP 5, 10, 20%, P<0.05): significantly inhibited
resorption area (FIG. 15) ([7]; increasing amounts): significantly decreased

Structure (SMILES): CC/C=C\C/C=C\C/C=C\CCCCCCCC(=O)O [α-linolenic acid]
extent of conversion to DHA [8]: 0.05 to 4.0%
proportion converted to EPA [8]: 0.20 to 8.0%
